Structures are written as SMILES. pKi: −log10 of the molar value.

Our source for the Ki values is ChEMBL document CHEMBL3763024, “Development of 3-(4-aminosulphonyl)-phenyl-2-mercapto-3H-quinazolin-4-ones as inhibitors of carbonic anhydrase isoforms involved in tumorigenesis and glaucoma” (Bioorg Med Chem, 2016).

The first test deals with Carbonic anhydrase 1 (Homo sapiens, UniProt P00915). The test is described as follows: Inhibition of human recombinant carbonic anhydrase 1 preincubated for 15 mins by stopped flow CO2 hydration assay.
Chain of Carbonic anhydrase 1 (P00915 whole entry): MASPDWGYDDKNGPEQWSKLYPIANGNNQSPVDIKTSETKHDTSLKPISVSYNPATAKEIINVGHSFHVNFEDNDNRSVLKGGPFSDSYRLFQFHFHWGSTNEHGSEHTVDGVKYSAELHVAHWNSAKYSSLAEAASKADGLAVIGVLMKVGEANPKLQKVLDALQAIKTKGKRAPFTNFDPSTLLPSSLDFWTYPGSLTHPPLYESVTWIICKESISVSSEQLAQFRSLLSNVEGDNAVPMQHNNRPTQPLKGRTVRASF
Consider `COc1ccc2c(=O)n(-c3ccc(S(N)(=O)=O)cc3)c(S)nc2c1`, for which the pKi was < 5.00.

The target in a further test is Carbonic anhydrase 9 (Homo sapiens, UniProt Q16790). Nature of the test: Inhibition of human recombinant carbonic anhydrase 9 preincubated for 15 mins by stopped flow CO2 hydration assay.
As to `NS(=O)(=O)c1ccc(-n2c(S)nc3ccc(Br)cc3c2=O)cc1`, the pKi is 6.56. Same read-out and setting: then `COc1cc2c(=O)n(-c3ccc(S(N)(=O)=O)cc3)c(S)nc2c(OC)c1OC`, with 7.30; and `NS(=O)(=O)c1ccc(-n2c(S)nc3c(F)cccc3c2=O)cc1`, with 7.34; and `NS(=O)(=O)c1ccc(-n2c(S)nc3cc(Br)ccc3c2=O)cc1`, with 6.79.

For `NS(=O)(=O)c1ccc(-n2c(S)nc3cc(Cl)ccc3c2=O)cc1`, the pKi is 6.80. On the same count and under the same terms, then `NS(=O)(=O)c1ccc(-n2c(S)nc3ccc(Cl)cc3c2=O)cc1`, with 7.46; and `NS(=O)(=O)c1ccc(-n2c(S)nc3c(Cl)cccc3c2=O)cc1`, with 7.36. Still for that read-out and setting: next, `COc1ccc2c(=O)n(-c3ccc(S(N)(=O)=O)cc3)c(S)nc2c1OC`: 7.31; `Cc1ccc2nc(S)n(-c3ccc(S(N)(=O)=O)cc3)c(=O)c2c1`: 7.79. On the same count and under the same terms, then `NS(=O)(=O)c1ccc(-n2c(S)nc3c(I)cccc3c2=O)cc1`, with 7.84; and `COc1ccc2nc(S)n(-c3ccc(S(N)(=O)=O)cc3)c(=O)c2c1`, with 8.43. As to `Cc1cc(C)c2nc(S)n(-c3ccc(S(N)(=O)=O)cc3)c(=O)c2c1`, the pKi is 7.76. Still for that read-out and setting: then `Cc1cccc2c(=O)n(-c3ccc(S(N)(=O)=O)cc3)c(S)nc12`, with 7.45; and `NS(=O)(=O)c1ccc(-n2c(S)nc3c(Br)cccc3c2=O)cc1`, with 8.33; and `COc1cccc2c(=O)n(-c3ccc(S(N)(=O)=O)cc3)c(S)nc12`, with 8.29.
